From US20070190187A1, “FORMULATION FOR ENHANCED DELIVERY OF PHENETHYLAMINE” (priority 2006, published 2007)

Assay: co-administration of phenylethylamine with moiety/moieties that inhibit the enzyme MAO-B
Assay type: in vivo
Conditions: co-administered with a moiety/moieties that inhibited the effects of the enzyme MAO-B
Description: Therefore, the combination of phenylethylamine or derivative thereof and the MAO-B enzyme inhibitor may be formulated as a dietary supplement, other foodstuff, a pharmaceutical, a topical or transdermal compound or a vaccine. The Dietary Supplement Health and Education Act of 1994, commonly referred to as DSHEA, defines “dietary supplement” as any product (except tobacco) that contains at least one of the following: (1) a vitamin, (2) a mineral, (3) an herb or botanical, (4) an amino acid, (5) a dietary substance “for use to supplement the diet by increasing total dietary intake,” or (6) any concentrate, metabolite, constituent, extract, or combination of any of the aforementioned ingredients. Examples of dietary supplements include, but are not limited to nutritional products; sports performance products, including ergogenic sports performing products; weight loss products; and meal replacement products. Dietary supplements may exist in various forms, including, but not limited to tablets, capsules, caplets, powders, drinks including shakes, and solid food items including snack bars, etc. For purposes of the present invention, a foodstuff is defined as a substance that can be used or prepared for use as food or extracted from food.

NCCc1ccccc1 [phenylethylamine, Phenethylamine]
amount of phenethylamine absorbed into the bloodstream, cells and tissue: increased amount | amount of phenethylamine allowed to reach the brain and period of time per dose administered before it is metabolized: a greater amount of phenethylamine or a derivative thereof, is allowed to reach the brain for a greater period of time
